Literature values in article PMC8661056, “Synthesis and Evaluation of [^11C]7-Halogen-2-Phenyl Isoindolone Derivatives: Potential PET Radioligands for in vivo Imaging of 5-HT2C Receptors” (Frontiers in Neuroscience, 2021).

Tests used:
5HT2AR = target: 5HT2AR; design: method as in Finnema et al., 2014; details: ref Finnema et al., 2014; cited from earlier work
5HT2CR = target: 5HT2CR; design: method as in Finnema et al., 2014; details: ref Finnema et al., 2014; cited from earlier work
5-HT2CR = system: 5-HT2CR; design: method as in Kim et al., 2017; details: rat brain; ref Kim et al., 2017; cited from earlier work

Row | Compound | Ki (5HT2AR) [nM] | Ki (5HT2CR) [nM] | ratios of uptake in regions of interest to cerebellum (5-HT2CR)
1 | COc1cc(CCNCc2ccccc2O[11CH3])c(OC)cc1Br [[^11C]Cimbi-36] | 0.5 | 1.7 | 
2 | C[C@H](Cc1cccc([18F])c1)Oc1nc(N2CCNC[C@H]2C)ncc1F [[^18F]4, [^18F]4-(3-Fluorophenethoxy)pyrimidine] |  |  | low to moderate
